# Laboratory results reported in patent US20060235062A1, “Novel heterocyclic analogs of diphenylethylene compounds” (THERACOS, INC., priority 2002, published 2006).
# Experiments:
# 3T3-L1 adipocytes = experiment: Glucose uptake in differentiated 3T3-L1 adipocytes; type: cell-based; conditions: for % Glucose uptake 0.1 μm / % Glucose uptake 1.0 μm: average of quadruplicate ± SD
# Procedure: Referring to FIG. 8 glucose uptake in 3T3-L1 differentiated adipocytes was measured after treatment with the test compound. The assay was conducted according to the method of Tafuri, Endocrinology, 137, 4706-4712 (1996). The serum-starved cells were treated with the test compound for 48 hours at different concentrations, then washed and incubated in glucose-free media for 30 minutes at 37° C. Then ^14C-deoxyglucose was added and uptake was monitored for 30 minutes under incubation. After washing, the cells were lysed (0.1% SIDS) and counted.
# Basal glucose uptake was measured in differentiated 3T3-L1 adipocytes following the protocol of Tafuri (6) with modifications. Briefly, 3T3-L1 fibroblasts, obtained from ATCC (Manassas, Va.), were differentiated to adipocytes by treating cells with porcine insulin (1 μg/ml for 4 days), dexamethasone (0.25 μM for first 2 days) and isobutyl methyl xanthine (IBMX, 0.5 mM for first 2 days) (all from Sigma Chemicals, St Louis, Mo.) following the protocol of Frost and Lane (7). Differentiated adipocytes were incubated in Dulbecco's Modified Eagle Medium (DMEM) containing 10% fetal bovine serum (GibcoBRL, Gaithersburg, Md.) with various concentrations of Compound 11 or vehicle (0.1% DMSO) for 48 h in 24-well plates, in triplicate. Cells were washed with phosphate buffered saline (PBS, 150 mM NaCl, 1 mM KH2PO4, 3 mM Na2HPO4; pH 7.4) and incubated in glucose-free DMEM for 2 h at 37° C. The cells were washed 3 times with Krebs Ringer Phosphate Buffer (KRP). Glucose uptake was initiated by addition of 0.25 μCi 2-^14C(U)-deoxy-D-glucose (300 μCi/mmol, American Radiolabeled Chemicals Inc., St Louis, Mo.) per well and the cells incubated for 10 min at room temperature in the presence of 0.1 mmol cold 2-deoxy-D-glucose. Finally, the cells were washed three times with ice-cold PBS containing 10 mM cold glucose, lysed with 0.5% SDS, and counted in a scintillation counter (Beckman LS6500).
# Human PPAR-γ2 = biological target: T1, Human PPAR-γ2 (Homo sapiens, UniProt P37231); experiment: PPAR-gamma mediated transactivation of PPRE-luciferase reporter; type: cell-based; conditions: for EC50: cells transfected with human PPAR-gamma2, 24 hours, non-linear regression, read-out: EC50, induction of PPAR-γ mediated luciferase activity
# T1 construct: inserting the PPARγ2 cDNA coding region into pcDNA3.1+ vector; expressed in transfected cells; host or cells: HEK293 cells (ATCC)
# T1 sequence (P37231 1-505): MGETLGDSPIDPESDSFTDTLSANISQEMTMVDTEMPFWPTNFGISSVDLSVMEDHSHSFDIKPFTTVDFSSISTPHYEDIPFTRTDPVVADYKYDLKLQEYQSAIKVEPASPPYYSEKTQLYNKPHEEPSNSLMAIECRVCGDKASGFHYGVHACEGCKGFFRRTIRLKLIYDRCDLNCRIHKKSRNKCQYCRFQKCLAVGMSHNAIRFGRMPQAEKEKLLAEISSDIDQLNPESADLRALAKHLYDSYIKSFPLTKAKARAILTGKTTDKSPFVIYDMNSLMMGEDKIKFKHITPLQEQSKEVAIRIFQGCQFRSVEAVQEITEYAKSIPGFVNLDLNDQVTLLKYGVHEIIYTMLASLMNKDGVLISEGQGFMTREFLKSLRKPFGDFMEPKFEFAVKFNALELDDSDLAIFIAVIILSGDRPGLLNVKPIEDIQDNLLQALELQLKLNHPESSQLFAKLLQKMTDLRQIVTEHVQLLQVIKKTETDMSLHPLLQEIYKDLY
# Procedure: Human PPAR-γ2 expression vector was constructed by inserting PPAR-γ2 encoding region into pcDNA3.1+ vector (Invitrogen, Carlsbad, Calif.). Luciferase reporter vector was constructed by ligating PPRE response element adjacent to the upstream of Firefly luciferase coding region. Control vector, pRL-SV40 expressing Renilla luciferase was purchased from Promega (Madison, Wis.).
# About 2.7×10^4 293 cells (ATCC, Manassas, Va.) were plated into a 35 mm culture well and maintained in Eagle's Minimal Essential Medium (ATCC, Manassas, Va.) supplemented with 10% heat inactivated horse serum (ATCC, Manassas, Va.) for 24 hours. Expression, reporter and control vectors (2.5 ng control and 100 ng others per culture well) were transfected by LI[…]™ Reagent (Invitrogen, Carlsbad, Calif.). Transfection reagent and DNA were prepared according to manufacture's recommendations and incubated with cells for 3 hours followed by adding equal volume EMEM supplemented with 20% horse serum. Twenty-four hours after transfection, cells were treated with vehicle or compounds at indicated final concentration for 24 hours. Final concentration of vehicle was 0.001% DMSO (Sigma, ST Louis, Mo.) in medium. Vehicle and compound treatment were all conducted in triplicate. Each culture well was then assayed for a response characterized by increased Firefly luciferase activity normalized with Renilla luciferase activity.
# Assays for Firefly luciferase activity and Renilla luciferase activity followed the standard protocol of Dual-luciferase Reporter® Assay System (Promega, Madison, Wis.). Briefly, 400 μl Passive Lysis Buffer was added into each culture well and all wells were placed on a shaker for 15 minutes. Five μl cell lysate of each well was added to a reaction tube. Luciferase reagent II and Stop & Glo® were injected into the reaction tube sequentially by Sirius Luminometer (Berthold Detection Systems, Pforzheim, Germany). Final reporter activity was calculated as the ratio of Firefly luciferase activity over by Renilla luciferase activity.
# Human PPARγ2 expression vector was constructed by inserting the PPARγ2 cDNA coding region into pcDNA3.1+ vector (Invitrogen, Carlsbad, Calif.). The PPRE-luciferase reporter gene was the kind gift of Dr. Kenneth Feingold. The control vector, pRL-SV40 containing the Renilla luciferase cDNA was purchased from Promega (Madison, Wis.). About 2.7×10^4 HEK293 human embryonal kidney cells (ATCC) were plated into a 35-mm tissue culture dish and maintained in Eagle Modified Essential Medium (EMEM, ATCC) containing 10% heat-inactivated horse serum for 24 h. Expression, reporter (100 ng/dish) and control (2.5 ng/dish) vectors were transfected using LI[…]™ Reagent (GibcoBRL) according to manufacturer's recommendation. At 24 h after transfection, cells were treated with vehicle (0.001% DMSO in medium) or compounds at the indicated concentration and incubated for 24 h. Each treatment was conducted in triplicate. Each culture dish was assayed for firefly luciferase activity normalized by Renilla luciferase activity to account for differences in transfection efficiency. Luciferase activity was measured using the Dual-luciferase Reporter® Assay System (Promega) and a Sirius luminometer (Berthold Detection System, Pforzheim, Germany).
# NF-kB p65 = NF-kB p65 activation in LPS-stimulated RAW cells (ELISA); type: cell-based; conditions: 10 μM, 1 μg/ml LPS 15 min, FIG. 15
# AIA rats = experiment: Cancellous bone loss in adjuvant induced arthritic (AIA) rats, MicroCT of right proximal tibia; type: in vivo, male Lewis rats
Molecule,glucose uptake activity in words (3T3-L1 adipocytes; 0.1 μM),glucose uptake activity in words (3T3-L1 adipocytes; 1 μM),% Glucose uptake 0.1 μm (3T3-L1 adipocytes),% Glucose uptake 1.0 μm (3T3-L1 adipocytes),EC50 (Human PPAR-γ2),PPAR-gamma agonist potency in words (Human PPAR-γ2; in vitro transactivation assay),further results
"COC(=O)C(=Cc1cc(OC)cc(OC)c1)c1ccc(Oc2ccc(C=C3SC(=O)NC3=O)cc2)cc1 [Compound 10, 3-(3,5-Dimethoxyphenyl)-2-{4-[4-(2,4-dioxothiazolidin-5-ylidenemethyl)-phenoxy]-phenyl}-acrylic acid methyl ester]","retained activity, but less than that of rosiglitazone",comparable to rosiglitazone,142.6 ± 7.4 % basal of the non treated cells,209.3 ± 22.6 % basal of the non treated cells,1.14 µM,reasonable potency,
COc1cc(C=C(C(=O)O)c2ccc(Oc3ccc(CC4SC(=O)NC4=O)cc3)cc2)cc(OC)c1 (stereo not shown) [Compound 14],,comparable to rosiglitazone,108.6 ± 19.9 % basal of the non treated cells,199.5 ± 11.6 % basal of the non treated cells,0.69 ± 0.038 µM,reasonable potency,
"CCCCC/C=C/C=C1/C(=O)C=C[C@@H]1C/C=C\CCCC(=O)O [Compound 15dPGJ2, 15-deoxy-Δ^12,14-prostaglandin J2]",,,,,,,inhibition of the activation of NF-kB (p65) (NF-kB p65): inhibited
"COC(=O)C(Cc1cc(OC)cc(OC)c1)c1ccc(Oc2ccc(C=C3SC(=O)NC3=O)cc2)cc1 (stereo not shown) [Compound 17, 3-(3,5-Dimethoxyphenyl)-2-{4-[4-(2,4-dioxothiazolidin-5-ylidenemethyl)-phenoxy]-phenyl}-propionic acid methyl ester]",devoid of activity,modest activity,101.9 ± 6.8 % basal of the non treated cells,130.0 ± 27.0 % basal of the non treated cells,23.9 µM,essentially inactive,
"COC(=O)C(Cc1cc(OC)cc(OC)c1)c1ccc(Oc2ccc(CC3SC(=O)NC3=O)cc2)cc1 (stereo not shown) [Compound 18, 3-(3,5-Dimethoxyphenyl)-2-{4-[4-(2,4-dioxothiazolidin-5-ylmethyl)-phenoxy]-phenyl}-propionic acid methyl ester]",devoid of activity,modest activity,104.4 ± 5.7 % basal of the non treated cells,137.0 ± 10.1 % basal of the non treated cells,57.7 µM,essentially inactive,
"COC(=O)/C(=C\c1cc(OC)cc(OC)c1)c1ccc(Oc2ccc(CC3SC(=O)NC3=O)cc2)cc1 (stereo not shown) [Compound 23, Z-3-(3,5-Dimethoxyphenyl)-2-{4-[4-(2,4-dioxothiazolidin-5-ylmethyl)-phenoxy]-phenyl}-acrylic acid methyl ester]",,essentially inactive,89.5 ± 5.6 % basal of the non treated cells,118.0 ± 3.6 % basal of the non treated cells,3.69 ± 1.45 µM,,"PPAR-gamma transactivation potency relative to a comparator, in words (Human PPAR-γ2; in vitro transactivation assay): less than one-tenth the potency of compound 11"
Etanercept,,,,,,,"less cancellous bone lost (AIA rats; AIA rats, treated vs vehicle): ~50%; C.Th (AIA rats; right proximal tibia): 198 ± 25 μm; Conn. Dens (AIA rats; right proximal tibia): 31.9 ± 19.7 l/mm3; SMI (0-3) (AIA rats; right proximal tibia): 2.8 ± 0.4; Tb.N (AIA rats; right proximal tibia): 2.8 ± 0.5 l/mm; BV/TV (AIA rats; right proximal tibia, compound 11 50 mg/kg oral, etanercept 1.67 mg/kg i.p., once daily): 12.9 ± 5.2%"
"Insulin: insulin, comparator in the 3T3-L1 glucose uptake test",,,335.2 ± 21.7 % basal of the non treated cells,345.6 ± 8.3 % basal of the non treated cells,,,
